Here are results for 21 compounds from patent US20230286958A1, “PLASMA KALLIKREIN INHIBITORS” (Merck Sharp & Dohme LLC, priority 2020, published 2023).

Molecules are shown by their SMILES.

The target in test [1] is Human plasma kallikrein (Homo sapiens (Human), UniProt P03952). The test is described as follows: Kallikrein Assay (fluorogenic substrate Acetyl-K-P-R-AFC). The format is biochemical. To be noted: Plasma Kallikrein (PKal). A digest of the protocol: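 Ki is derived from IC50 with the Cheng-Prusoff equation, and IC50 from the inflection point of a four-parameter logistic curve. The rate of AFC release is read with 0.5 nM purified enzyme and […] substrate at room temperature or 37 °C.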

For test [2], the target named is human Factor XIa (Homo sapiens (Human), UniProt P03951). Put plainly: Factor XIa Assay (fluorogenic substrate GPR-AFC). The format is biochemical. To be noted: Factor XIa (FXIa).

One may read the IC50 as the concentration that inhibits the measured activity by half. A high value points to weaker potency.

Sequence of human Factor XIa (P03951 388-625 limits assumed): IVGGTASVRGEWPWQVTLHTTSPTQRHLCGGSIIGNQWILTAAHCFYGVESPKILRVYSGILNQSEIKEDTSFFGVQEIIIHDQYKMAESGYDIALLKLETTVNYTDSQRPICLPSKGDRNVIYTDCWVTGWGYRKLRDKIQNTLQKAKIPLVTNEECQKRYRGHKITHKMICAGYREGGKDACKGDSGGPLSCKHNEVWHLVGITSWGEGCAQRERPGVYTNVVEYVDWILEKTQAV
Sequence of human Factor XIa (P03951 19-387 partner limits assumed): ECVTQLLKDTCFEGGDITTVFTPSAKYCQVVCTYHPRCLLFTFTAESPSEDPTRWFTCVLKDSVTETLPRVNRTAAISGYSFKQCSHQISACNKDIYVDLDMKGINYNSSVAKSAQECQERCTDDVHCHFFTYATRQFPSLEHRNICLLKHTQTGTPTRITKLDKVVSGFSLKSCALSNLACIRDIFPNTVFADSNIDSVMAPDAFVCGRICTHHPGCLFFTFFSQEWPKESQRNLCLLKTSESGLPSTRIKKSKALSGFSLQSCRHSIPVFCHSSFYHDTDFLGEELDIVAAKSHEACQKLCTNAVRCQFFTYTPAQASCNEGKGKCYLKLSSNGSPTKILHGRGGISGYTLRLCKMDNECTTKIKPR
Sequence of Human plasma kallikrein (P03952 391-638): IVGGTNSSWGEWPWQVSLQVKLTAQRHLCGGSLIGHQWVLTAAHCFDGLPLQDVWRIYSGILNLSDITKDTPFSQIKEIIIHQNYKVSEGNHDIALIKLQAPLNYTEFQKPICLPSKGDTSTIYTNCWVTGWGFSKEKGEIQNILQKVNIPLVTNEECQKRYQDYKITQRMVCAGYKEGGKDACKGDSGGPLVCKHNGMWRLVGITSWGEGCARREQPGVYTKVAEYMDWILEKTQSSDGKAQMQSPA
Sequence of Human plasma kallikrein (P03952 20-390 partner): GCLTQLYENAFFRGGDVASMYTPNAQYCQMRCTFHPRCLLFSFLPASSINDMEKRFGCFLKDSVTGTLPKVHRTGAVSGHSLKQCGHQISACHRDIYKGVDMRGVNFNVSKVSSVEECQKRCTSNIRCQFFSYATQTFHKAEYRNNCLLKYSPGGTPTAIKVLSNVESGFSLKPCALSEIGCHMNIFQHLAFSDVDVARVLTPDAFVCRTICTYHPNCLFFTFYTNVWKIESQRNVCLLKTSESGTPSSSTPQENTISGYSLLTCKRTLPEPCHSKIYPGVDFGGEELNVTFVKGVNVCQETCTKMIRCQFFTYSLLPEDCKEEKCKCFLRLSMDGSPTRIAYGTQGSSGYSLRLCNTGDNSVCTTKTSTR

With `Cc1ncc(-c2c(C(F)F)ccc(Cl)c2F)nc1C(=O)Nc1cnn(Cc2cnc(N3C[C@H]4C[C@H]4C3=O)c(C)n2)c1` [Example 46, 6-(3-Chloro-6-(difluoromethyl)-2-fluorophenyl)-3-methyl-N-(1-((6-methyl-5-((1R,5S)-2-oxo-3-azabicyclo[3.1.0]hexan-3-yl)pyrazin-2-yl)methyl)-1H-pyrazol-4-yl)pyrazine-2-carboxamide], the IC50 amounted to 0.9 nM in test [1] and 755 nM in test [2].
On to `Cc1nc(Cn2cc(NC(=O)c3cncc(-c4c(C(F)F)ccc(Cl)c4F)n3)cn2)cnc1N1C[C@H]2C[C@H]2C1=O` [Example 47, 6-(3-Chloro-6-(difluoromethyl)-2-fluorophenyl)-N-(1-((6-methyl-5-((1R,5S)-2-oxo-3-azabicyclo[3.1.0]hexan-3-yl)pyrazin-2-yl)methyl)-1H-pyrazol-4-yl)pyrazine-2-carboxamide], for which the IC50 was 2.5 nM in test [1] and 1150 nM in test [2].
For `Cc1c(Cn2cc(NC(=O)c3cncc(-c4c(C(F)F)ccc(Cl)c4F)n3)cn2)ccc(N2C[C@H]3C[C@H]3C2=O)c1C` [Example 48], the figures for the IC50 in test [1] and in test [2] were 0.6 nM and > 10000 nM, respectively.
Consider `COc1cc(Cn2cc(NC(=O)c3cncc(-c4c(C(F)F)ccc(Cl)c4F)n3)cn2)cnc1N1C[C@H]2C[C@H]2C1=O` [Example 49, 6-(3-Chloro-6-(difluoromethyl)-2-fluorophenyl)-N-(1-((5-methoxy-6-((1R,5S)-2-oxo-3-azabicyclo[3.1.0]hexan-3-yl)pyridin-3-yl)methyl)-1H-pyrazol-4-yl)pyrazine-2-carboxamide], for which the IC50 in test [1] turned out to be 3.5 nM; in test [2], 423 nM.
For `O=C(Nc1cnn(Cc2cnc(N3C[C@H]4C[C@H]4C3=O)c(F)c2)c1)c1cncc(-c2c(C(F)F)ccc(Cl)c2F)n1` [Example 50, 6-(3-Chloro-6-(difluoromethyl)-2-fluorophenyl)-N-(1-((5-fluoro-6-((1R,5S)-2-oxo-3-azabicyclo[3.1.0]hexan-3-yl)pyridin-3-yl)methyl)-1H-pyrazol-4-yl)pyrazine-2-carboxamide], the IC50 in test [1] was determined as 5.5 nM; in test [2], 2120 nM.
With `Cc1nc(N2C[C@H]3C[C@H]3C2=O)ncc1C1(n2cc(NC(=O)c3nc(-c4c(C(F)F)ccc(Cl)c4F)cnc3C)cn2)CC1` [Example 54, 6-(3-Chloro-6-(difluoromethyl)-2-fluorophenyl)-3-methyl-N(1-(1-(4-methyl-2-((1R,5S)-2-oxo-3-azabicyclo[3.1.0]hexan-3-yl)pyrimidin-5-yl)cyclopropyl)-1H-pyrazol-4-yl)pyrazine-2-carboxamide], the IC50 in test [1] worked out at 2.4 nM; in test [2] it was 1280 nM.
In the same order, the values of `Cc1cc(N2C[C@H]3C[C@H]3C2=O)ncc1Cn1cc(NC(=O)c2cncc(-c3c(C(F)F)ccc(Cl)c3F)n2)cn1` [Example 57, 6-(3-Chloro-6-(difluoromethyl)-2-fluorophenyl)-N-(1-((4-methyl-6-((1R,5S)-2-oxo-3-azabicyclo[3.1.0]hexan-3-yl)pyridin-3-yl)methyl)-1H-pyrazol-4-yl)pyrazine-2-carboxamide] are 4.9 nM and 1890 nM.
Turning to `Cc1nc(Cn2cc(NC(=O)c3nc(-c4c(C(F)F)ccc(Cl)c4F)cnc3C)cn2)ccc1N1C[C@H]2C[C@H]2C1=O` [Example 63, 6-(3-Chloro-6-(difluoromethyl)-2-fluorophenyl)-3-methyl-N-(1-((6-methyl-5-((1R,SS)-2-oxo-3-azabicyclo[3.1.0]hexan-3-yl)pyridin-2-yl)methyl)-1H-pyrazol-4-yl)pyrazine-2-carboxamide], the figures for the IC50 in test [1] and in test [2] were 1.7 nM and > 10000 nM, respectively.
For `Cc1nc(Cn2cc(NC(=O)c3cncc(-c4c(C(F)F)ccc(Cl)c4F)n3)cn2)ccc1N1C[C@H]2C[C@H]2C1=O` [Example 64, 6-(3-Chloro-6-(difluoromethyl)-2-fluorophenyl)-N-(1-((6-methyl-5-((1R,5S)-2-oxo-3-azabicyclo[3.1.0]hexan-3-yl)pyridin-2-yl)methyl)-1H-pyrazol-4-yl)pyrazine-2-carboxamide], the results for the IC50 in test [1] and in test [2] were 3.4 nM and > 10000 nM, respectively.
As for `Cc1cc(Cn2cc(NC(=O)c3cncc(-c4c(C(F)F)ccc(Cl)c4F)n3)cn2)ncc1N1C[C@H]2C[C@H]2C1=O` [Example 65, 6-(3-Chloro-6-(difluoromethyl)-2-fluorophenyl)-N-(1-((4-methyl-5-((1R,5S)-2-oxo-3-azabicyclo[3.1.0]hexan-3-yl)pyridin-2-yl)methyl)-1H-pyrazol-4-yl)pyrazine-2-carboxamide], the IC50 in test [1] is 35.7 nM; in test [2], > 10000 nM.
Regarding `Cc1nc(N2C[C@H]3C[C@H]3C2=O)ncc1Cn1cc(NC(=O)c2nc(-c3c(C(F)F)ccc(Cl)c3F)cc(=O)n2C)cn1` [Example 81, 4-(3-Chloro-6-(difluoromethyl)-2-fluorophenyl)-1-methyl-N-(1-((4-methyl-2-((1R,5S)-2-oxo-3-azabicyclo[3.1.0]hexan-3-yl)pyrimidin-5-yl)methyl)-1H-pyrazol-4-yl)-6-oxo-1,6-dihydropyrimidine-2-carboxamide], the figures for the IC50 in test [1] and in test [2] were 1.8 nM and 94 nM, respectively.
On to `Cc1ncc(-c2c(C(F)F)ccc(Cl)c2F)nc1C(=O)Nc1cnn(Cc2cnc(N3C[C@H]4C[C@H]4C3=O)c(F)c2)c1` [Example 82, 6-(3-Chloro-6-(difluoromethyl)-2-fluorophenyl)-N-(1-((5-fluoro-6-((1R,5S)-2-oxo-3-azabicyclo[3.1.0]hexan-3-yl)pyridin-3-yl)methyl)-1H-pyrazol-4-yl)-3-methylpyrazine-2-carboxamide], for which the results for the IC50 in test [1] and in test [2] were 1.8 nM and 935 nM, respectively.
In the same order, the values of `Cc1cc(Cn2cc(NC(=O)c3nc(-c4c(C(F)F)ccc(Cl)c4F)cnc3C)cn2)nnc1N1C[C@H]2C[C@H]2C1=O` [Example 83, 6-(3-Chloro-6-(difluoromethyl)-2-fluorophenyl)-3-methyl-N-(1-((5-methyl-6-((1R,5S)-2-oxo-3-azabicyclo[3.1.0]hexan-3-yl)pyridazin-3-yl)methyl)-1H-pyrazol-4-yl)pyrazine-2-carboxamide] are 3.4 nM and 259 nM.
With `Cc1cc(N2C[C@H]3C[C@H]3C2=O)nnc1Cn1cc(NC(=O)c2nc(-c3c(C(F)F)ccc(Cl)c3F)cnc2C)cn1` [Example 84, 6-(3-Chloro-6-(difluoromethyl)-2-fluorophenyl)-3-methyl-N-(1-((4-methyl-6-((1R,5S)-2-oxo-3-azabicyclo[3.1.0]hexan-3-yl)pyridazin-3-yl)methyl)-1H-pyrazol-4-yl)pyrazine-2-carboxamide], the IC50 in test [1] was found to be 20.7 nM; in test [2] it was 5710 nM.
In the case of `Cc1nc(N2C[C@H]3C[C@H]3C2=O)ncc1Cn1cc(NC(=O)c2nc(-c3c(S(C)(=O)=O)ccc(Cl)c3F)cnc2C)cn1` [Example 85, 6-(3 -Chloro-2-fluoro-6-(methylsulfonyl)phenyl)-3-methyl-N-(1-((4-methyl-2-((1R,5S)-2-oxo-3-azabicyclo[3.1.0]hexan-3-yl)pyrimidin-5-yl)methyl)-1H-pyrazol-4-yl)pyrazine-2-carboxamide], the IC50 amounted to 10.1 nM in test [1] and 2070 nM in test [2].
As to `Cc1ncc(-c2c(C(F)F)ccc(Cl)c2F)nc1C(=O)Nc1cnn(Cc2nnc(N3C[C@H]4C[C@H]4C3=O)c(C)c2C)c1` [Example 88, 6-(3-Chloro-6-(difluoromethyl)-2-fluorophenyl)-N-(1-((4,5-dimethyl-6-((1R,5S)-2-oxo-3-azabicyclo[3.1.0]hexan-3-yl)pyridazin-3-yl)methyl)-1H-pyrazol-4-yl)-3-methylpyrazine-2-carboxamide], the IC50 in test [1] turned out to be 0.7 nM; in test [2] it was 127 nM.
As to `Cc1ncc(-c2c(C(F)F)ccc(Cl)c2F)nc1C(=O)Nc1cnn(C(C)c2cnc(N3C[C@H]4C[C@H]4C3=O)c(Cl)c2)c1` (stereo partly drawn) [Example 91, N-(1-((S)-1-(5-chloro-6-((1R,5S)-2-oxo-3-azabicyclo[3.1.0]hexan-3-yl)pyridin-3-yl)ethyl)-1H-pyrazol-4-yl)-6-(3-chloro-6-(difluoromethyl)-2-fluorophenyl)-3-methylpyrazine-2-carboxamide], the IC50 in test [1] turned out to be 1.3 nM; in test [2], 2580 nM.
Regarding `Cc1ncc(-c2c(C(F)F)ccc(Cl)c2F)nc1C(=O)Nc1cnn(C(C)c2cnc(N3C[C@H]4C[C@H]4C3=O)c(Cl)c2)c1` (stereo partly drawn) [Example 92, N-(1-((S)-1-(5-chloro-6-((1R,5S)-2-oxo-3-azabicyclo[3.1.0]hexan-3-yl)pyridin-3-yl)ethyl)-1H-pyrazol-4-yl)-6-(3-chloro-6-(difluoromethyl)-2-fluorophenyl)-3-methylpyrazine-2-carboxamide], the IC50 in test [1] was found to be 1.3 nM; in test [2], 577 nM.
In the same order, the values of `Cc1nc(Cn2cc(NC(=O)c3nc(-c4c(C(F)F)ccc(Cl)c4F)cnc3C)cn2)ncc1N1C[C@H]2C[C@H]2C1=O` [Example 93, 6-(3-Chloro-6-(difluoromethyl)-2-fluorophenyl)-3-methyl-N-(1-((4-methyl-5-((1R,5S)-2-oxo-3-azabicyclo[3.1.0]hexan-3-yl)pyrimidin-2-yl)methyl)-1H-pyrazol-4-yl)pyrazine-2-carboxamide] are 19.9 nM and > 10000 nM.
For `Cc1nc(Cn2cc(NC(=O)c3nc(-c4c(C(F)F)ccc(Cl)c4F)cnc3C(F)F)cn2)cnc1N1C[C@H]2C[C@H]2C1=O` [Example 94, 6-(3-Chloro-6-(difluoromethyl)-2-fluorophenyl)-3-(difluoromethyl)-N-(1-((6-methyl-5-((1R, 5S)-2-oxo-3-azabicyclo[3.1.0]hexan-3-yl)pyrazin-2-yl)methyl)-1H-pyrazol-4-yl)pyrazine-2-carboxamide], the IC50 was found to be 1.6 nM in test [1] and 1010 nM in test [2].
For `COc1nc(N2C[C@H]3C[C@H]3C2=O)ncc1Cn1cc(NC(=O)c2nc(-c3c(C(F)F)ccc(Cl)c3F)cnc2C)cn1` [Example 95, 6-(3-Chloro-6-(difluoromethyl)-2-fluorophenyl)-N-(1-((4-methoxy-2-((1R, 5S)-2-oxo-3-azabicyclo[3.1.0]hexan-3-yl)pyrimidin-5-yl)methyl)-1H-pyrazol-4-yl)-3-methylpyrazine-2-carboxamide], the IC50 in test [1] was found to be 14.3 nM; in test [2], 4590 nM.
